Experimental findings from US20070295251A1, “EPSP SYNTHASES: COMPOSITIONS AND METHODS OF USE” (Athenix Corporation, priority 2006, published 2007) are described below.

Series [1] addresses GRG1 EPSP synthase variant EVO3, SEQ ID NO:37 (Q-loop core position 2 K, 10 G, 14 P, 16 L) (Pseudomonas putida, UniProt Q683S1, D85K/I93G/I99L/T97P). In words: EPSP synthase kinetics (AMPLEX Red fluorescence assay). It is filed as biochemical. The settings on record: in words.
Description: (§3) Extracts were typically incubated with all assay components except shikimate-3-phosphate and AMPLEX™ Red for 5 minutes at room temperature, and assays were started by adding shikimate-3-phosphate and AMPLEX® Red.
(§4) Following full determination of kinetic parameters, the kinetic constants were determined as follows, adjusting for the quantity of protein determined by either antibody dot-blot analysis as described herein, or by Bradford Assay, as known in the art.
The target of series [2] is GRG1 EPSP synthase variant EVO4, SEQ ID NO:43 (Q-loop core position 2 N, 10 I, 14 A, 16 I) (Pseudomonas putida, UniProt Q683S1, D85N/T97A). The description is as above. It is filed as biochemical. The note with it: in words.
Description: as §3, §4
In series [3] the target is GRG1 EPSP synthase variant EVO2, SEQ ID NO:5 (clone L1-C; Q-loop core position 12 A) (Pseudomonas putida, UniProt Q683S1, M95A). The series is described as above. It is filed as biochemical. The note with it: in words, relative to GRG1.
Description: as §3, §4
The test system of series [4] is maize plants expressing GRG1(EVO6). Put plainly: Glyphosate spray of transgenic maize plants. It is filed as in vivo. The note with it: 14 mM glyphosate spray. The source says: (§1) The grg1 (evo5) gene and grg1 (evo6) genes were each cloned into a plant expression vector suitable for Agrobacterium-mediated transformation, such vector containing at least (1) a promoter capable of expression in a plant cell, (2) a chloroplast peptide leader coding sequence, (3) a transcriptional terminator. The resulting clones, pAX4014 and pAX4032 respectively, were transferred to Agrobacterium as known in the art and described herein, and the resulting Agrobacterium strain used to develop transgenic maize callus and ultimately transgenic maize plants.
(§2) To transgenic plants were sprayed with glyphosate formulations of 14 mM glyphosate after adaptation to soil, and the resistance to the herbicide was scored after two weeks relative to non-transgenic controls.

In series [5] the test system is maize plants expressing GRG1(EVO5). In words: Glyphosate spray of transgenic maize plants. It is filed as in vivo. The note with it: 14 mM glyphosate spray.
Description: as §1, §2

The target of series [6] is GRG1 EPSP synthase variant GRG1(EVO1), SEQ ID NO:28 (Q-loop core position 10 M, 12 L, 16 F) (Pseudomonas putida, UniProt Q683S1, I93M/I99F/M95L). In words: EPSP synthase kinetics (AMPLEX Red fluorescence assay). It is filed as biochemical. The settings on record: in words, relative to GRG1.
Description: as §3, §4
Series [7] deals with BL21*DE3 competent E. coli cells. In words: Screening for glyphosate resistance on plates (growth on M63+ agar with glyphosate). It is filed as cell-based. The settings on record: kanamycin, IPTG, glyphosate concentration as in value. How it is done: Library ligations were transformed into BL21*DE3 competent E. coli cells (Invitrogen). The transformations were performed according to the manufacturer's instructions with the following modifications. After incubation for 1 hour at 37° C. in SOC medium, the cells were sedimented by centrifugation (5 minutes, 1000×g, 4° C.). The cells were washed with 1 ml M63+, centrifuged again, and the supernatant decanted. The cells were washed a second time with 1 ml M63+ and resuspended in 200 ul M63+.
For selection of mutant GRG1 enzymes conferring glyphosate resistance in E. coli, the cells were plated onto M63+ agar medium plates containing 50 mM glyphosate, 0.05 mM IPTG (isopropyl-beta-D-thiogalactopyranoside), and 50 ug/ml kanamycin. M63+ medium contains 100 mM KH2PO4, 15 mM (NH4)2SO4, 50 μM CaCl2, 1 μM FeSO4, 50 μM MgCl2, 55 mM glucose, 25 mg/liter L-proline, 10 mg/liter thiamine HCl, sufficient NaOH to adjust the pH to 7.0, and 15 g/liter agar. The plates were incubated for 36 hours at 37° C.

A further series has as its system EPSP synthase. How it is done: For any one glyphosate concentration, EPSP synthase activity was measured as a function of a broad range of PEP concentrations. The data were fit to the Michaelis-Menten equation using […]® software (Synergy Software) and used to determine the Km (Km apparent) of the EPSP synthase at that glyphosate concentration.
The procedure of series [8]:
DNA from grg1 (evo5) was mutagenized by PCR as known in the art, and cloned into pRSF1b (Invitrogen), and a library of mutagenized clones identified by virtue of growth on 50 mM glyphosate.

Changes are numbered by the printed parent chain.

Take `C=C(OP(=O)(O)O)C(=O)O` [PEP, phosphoenolpyruvic acid]: the “Km for PEP” value in series [1] (vs GRG1) is recorded as “virtually identical to GRG1”; in series [2], “reasonable, though somewhat elevated”.
For `O=C(O)CNCP(=O)(O)O` [glyphosate, N-phosphonomethylglycine], the Ki for glyphosate result in series [3], in series [6], in [1] (relative to GRG1) and in series [2] (relative to GRG1) was “improved” throughout. In addition, the “Seed Set” value in series [4] and in series [5] was “YES” in each case. The “Survival at 2 weeks post-spray” value in series [4] and in series [5] was “YES” throughout. In addition, the Chlorosis entry in [4] (two weeks) and in series [5] (two weeks) was “NONE” in each case. In addition, the Stunting entry in series [4] (two weeks) and in series [5] (two weeks) was “NONE” throughout.
As to “GRG1(EVO7): variant after mutagenesis of grg1 (evo6) in the Q-loop region (SEQ ID NO:64) (ITSEGVKPVAPFIKCGESGLSVRAFTPIVALSK; GRG1 variant - GRG1(4S-39))”, the “growth on glyphosate plates (glyphosate resistance in E. coli)” value in series [7] was “glyphosate resistant”. Besides, the “kinetic properties / parameters (in words)” value in the series with EPSP synthase is given as “further improved kinetic properties over GRG1(EVO6)”.
The corresponding values for “GRG1(EVO8): variant after mutagenesis of grg1 (evo6) in the Q-loop region (SEQ ID NO:65) (ITSEGVKPVAPFIKCGESGLSGRMFPPIVALSK; GRG1 variant - GRG1(4S-60))” are “glyphosate resistant” and “further improved kinetic properties over GRG1(EVO6)”.

B1: GRG1(EVO5): GRG1 Q-loop variant from Library 4 (SEQ ID NO:56) (protein)
chain: MKVTIQPGDLTGIIQSPASKSSMQRACAAALVAKGISEIINPGHSNDDKAARDIVSRLGARLEDQPDGSLQITSEGVKPVAPFIECGESGLSSRIFTPLVALSKEEVTIKGSGSLVTRPMDFFDEILPHLGVKVKSNQGKLPLVIQGPLKPADVTVDGSLSSQFLTGLLLAYAAADASDVAIKVTNLKSRPYIDLTLDVMKRFGLKTPENRNYEEFYFKAGNVYDETKMQRYTVEGDWSGGAFLLVAGAIAGPITVRGLDIASTQADKAIVQALMSANAGIAIDAKEIKLHPADLNAFEFDATDCPDLFPPLVALASYCKGETKIKGVSRLAHKESDRGLTLQDEFGKMGVEIHLEGDLMRVIGGKGVKGAEVSSRHDHRIAMACAVAALKAVGETTIEHAEAVNKSYPDFYSDLKQLGGVVSLNHQFNFS
modifications: GRG1 variant - GRG1(EVO5)
For B1, in the series on EPSP synthase, the “Km / affinity for PEP (in words)” value is “good affinity for PEP”. The “glyphosate resistance (in words, kinetic analysis)” value in the series with EPSP synthase (relative to GRG1) is on record as “improved glyphosate resistance”.

B2: GRG1(5.2.B6): GRG1(EVO5) with V351 to A change (SEQ ID NO:58) (protein)
chain: B1 chain with I95L, N186K
modifications: GRG1 variant - GRG1(EVO7)
For the molecule B2, in series [8], the soluble protein entry was “substantial increase in soluble protein”.

B3: GRG1(EVO6): GRG1(EVO5) with N186 to K change (SEQ ID NO:57) (protein)
chain: B1 chain with N186K
modifications: GRG1 variant - GRG1(EVO6)
Take B3: the soluble protein result in [8] is “substantial increase in soluble protein”.
